Test results as given in article PMC3262147 (Chemmedchem, 2011).
Like-named read-outs stand apart in the source and are kept apart here.

Tests used:
STS [1] = details: cited from earlier work
STS [2] = molecular target: T1, STS (Homo sapiens, UniProt P08842); assay: Inhibition of STS activity in intact monolayers of JEG-3 cells; assay type: cell-based; details: for inhibition at 10 µM: JEG-3, JEG-3 cells
T1 sequence (P08842 22-583): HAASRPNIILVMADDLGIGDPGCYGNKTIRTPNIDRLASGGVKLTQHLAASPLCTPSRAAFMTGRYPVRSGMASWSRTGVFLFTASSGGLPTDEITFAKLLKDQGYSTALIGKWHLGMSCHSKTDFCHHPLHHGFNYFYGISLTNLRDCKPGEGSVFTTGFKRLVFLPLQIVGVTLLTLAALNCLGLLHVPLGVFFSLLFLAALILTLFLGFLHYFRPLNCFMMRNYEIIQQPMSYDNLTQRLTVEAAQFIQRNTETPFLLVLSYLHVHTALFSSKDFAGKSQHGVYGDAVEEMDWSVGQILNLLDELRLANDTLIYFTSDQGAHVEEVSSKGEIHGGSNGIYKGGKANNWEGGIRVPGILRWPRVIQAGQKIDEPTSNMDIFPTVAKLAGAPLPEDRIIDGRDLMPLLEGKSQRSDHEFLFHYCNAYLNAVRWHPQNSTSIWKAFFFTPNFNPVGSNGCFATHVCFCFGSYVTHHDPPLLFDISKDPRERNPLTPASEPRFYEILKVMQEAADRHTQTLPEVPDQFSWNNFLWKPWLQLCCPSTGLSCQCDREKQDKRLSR

rat liver STS = details: 24 h after administration, cited from earlier work
liver STS, skin STS = details: 1 and 10 mg kg^−1, cited from earlier work
[3] = preparation of placental microsomes
[4] = read-out: PM IC50, placental microsomes

IC50 (STS [2]) [nM]	inhibition at 10 µM (STS [2]; determined at 10 μM) [%]	Structure (SMILES)	IC50 (STS [1]; [4]) [nM]	further results
–	–	COc1cc2c(cc1OS(N)(=O)=O)CC[C@@H]1[C@@H]2CC[C@]2(C)C(=O)CC[C@@H]12 [2-methoxyestrone 3-O-sulfamate, reference compound]	–	IC50 (STS [1]; [3]): 30 nM
–	–	NS(=O)(=O)Oc1ccc2c3c(c(=O)oc2c1)CCCCC3 [Compound 1, Irosustat]	8	–
0.022	–	NS(=O)(=O)Oc1ccc2c3c(c(=O)oc2c1)CCCCCCC3 [Compound 6, 6-Oxo-6,7,8,9,10,11,12,13-octahydrocyclonona[c]chromen-3-yl sulfamate]	2.4	–
0.025	–	NS(=O)(=O)Oc1ccc2c3c(c(=O)oc2c1)CCCCCCCC3 [Compound 7, 6-Oxo-7,8,9,10,11,12,13,14-octahydro-6H-cyclodeca[c]chromen-3-yl sulfamate]	1	–
100	–	NS(=O)(=O)Oc1ccc2c3c(c(=O)oc2c1)CCCCCCCCCC3 [Compound 9, 6-Oxo-7,8,9,10,11,12,13,14,15,16-decahydro-6H-cyclododeca[c]chromen-3-yl sulfamate]	60	–
220	–	NS(=O)(=O)Oc1ccc2c3c(c(=O)oc2c1)CCCCCCCCCCC3 [Compound 10, 6-Oxo-6,7,8,9,10,11,12,13,14,15,16,17-dodecahydrocyclotrideca[c]chromen-3-yl sulfamate]	75	–
1600	–	NS(=O)(=O)Oc1ccc2c3c(c(=O)oc2c1)CCCCCCCCCCCCC3 [Compound 11, 6-Oxo-6,7,8,9,10,11,12,13,14,15,16,17,18,19-tetradecahydrocyclopentadeca[c]chromen-3-yl sulfamate]	370	Inhibition of rat liver STS activity (rat liver STS; 0.1 mg kg^−1): 23%; Inhibition of rat liver STS activity (rat liver STS; 1 mg kg^−1): 94%
> 10000	–	CN(C)S(=O)(=O)Oc1ccc2c3c(c(=O)oc2c1)CCCCC3 [Compound 12, 6-Oxo-6,7,8,9,10,11-hexahydrocyclohepta[c]chromen-3-yl dimethylsulfamate]	–	JEG-3 IC50 (STS [2]; JEG-3 cells, Table 1): inactive; Inhibition of skin and liver STS (liver STS, skin STS; applied topically): inhibits skin as well as liver STS effectively; Inhibition of liver STS activity (liver STS, skin STS; nude mice, oral): inhibits liver STS activity potently
78 ± 13	–	COc1cc2c3c(c(=O)oc2cc1OS(N)(=O)=O)CCCCC3 [Compound 13, 2-Methoxy-6-oxo-6,7,8,9,10,11-hexahydrocyclohepta[c]chromen-3-yl sulfamate]	–	–
283 ± 66	–	NS(=O)(=O)Oc1ccc2oc(=O)c3c(c2c1)CCCCC3 [Compound 14, 6-oxo-6,7,8,9,10,11-hexahydrocyclohepta[c]chromen-2-yl sulfamate]	–	–
240 ± 40	98	NS(=O)(=O)Oc1ccc2c3c(c(=O)[nH]c2c1)CCCCC3 [Compound 16, 6-Oxo-6,7,8,9,10,11-hexahydro-5H-cyclohepta[c]quinolin-3-yl sulfamate]	–	Fold less potent than 1 (STS [2]; JEG-3 IC50 versus 1): 160 fold; Inhibition (STS [2]; JEG-3 cells, determined at 10 μM, 10 µM): 96%
2400	–	Cn1c(=O)c2c(c3ccc(OS(N)(=O)=O)cc31)CCCCC2 [Compound 18, 5-Methyl-6-oxo-6,7,8,9,10,11-hexahydro-5H-cyclohepta[c]quinolin-3-yl sulfamate]	–	–
–	68	COc1nc2cc(OS(N)(=O)=O)ccc2c2c1CCCCC2 [Compound 19, 6-Methoxy-8,9,10,11-tetrahydro-7H-cyclohepta[c]quinolin-3-yl sulfamate]	–	–
–	< 10	CCCCCn1c(=O)c2c(c3ccc(OS(N)(=O)=O)cc31)CCCCC2 [Compound 20, 6-Oxo-5-pentyl-6,7,8,9,10,11-hexahydro-5H-cyclohepta[c]quinolin-3-yl sulfamate]	–	–
–	< 10	CCCCCOc1nc2cc(OS(N)(=O)=O)ccc2c2c1CCCCC2 [Compound 21, 6-(Pentyloxy)-8,9,10,11-tetrahydro-7H-cyclohepta[c]quinolin-3-yl sulfamate]	–	–
–	20	NS(=O)(=O)Oc1ccc2c3c(c(=O)n(CCCc4ccccc4)c2c1)CCCCC3 [Compound 22, 6-Oxo-5-(3-phenylpropyl)-6,7,8,9,10,11-hexahydro-5H-cyclohepta[c]quinolin-3-yl sulfamate]	–	–
–	< 10	NS(=O)(=O)Oc1ccc2c3c(c(OCCCc4ccccc4)nc2c1)CCCCC3 [Compound 23, 6-(3-Phenylpropoxy)-8,9,10,11-tetrahydro-7H-cyclohepta[c]quinolin-3-yl sulfamate]	–	–
> 1000	–	NS(=O)(=O)Nc1ccc2c3c(c(=O)[nH]c2c1)CCCCC3 [Compound 24, 6-Oxo-6,7,8,9,10,11-hexahydro-5H-cyclohepta[c]quinolin-3-ylsulfamide]	–	–
–	–	C[C@]12CC[C@@H]3c4ccc(OS(N)(=O)=O)cc4CC[C@H]3[C@@H]1CCC2=O [EMATE, oestrone 3-O-sulfamate, reference compound]	–	IC50 (STS [1]; [3]): 4 nM
